Data as given in patent publication US12570687B2, “Triterpenoid compounds, pharmaceutical compositions thereof, and their use for treating a nuclear receptor subfamily 4 group a member 1-mediated disease” (NUCMITO PHARMACEUTICALS COMPANY LIMITED, priority 2019, dated 2026).

Key:
Nur77-LBD = Nur77-LBD (Homo sapiens, UniProt P22736); assay: Surface plasmon resonance (SPR) binding to Nur77-LBD; details: BIAcore T200, 25° C., 1:1 Langmuir binding mode, read-out: Kd when binding to the Nur77-LBD protein
Method: A test compound was analyzed for its binding kinetics with Nur77-LBD at 25° C. on a BIAcore T200 machine with CM5 chips. PBSP was used for all measurements. For SPR measurements, Nur77-LBD proteins were purified. A blank channel was used as negative control. About 10,000 response units of Nur77-LBD were immobilized on the chips. When the data collection was finished in each cycle, the sensor surface was regenerated with glycine-HCl at pH 2.5. A serial of concentrations ranging from 0.15 to 5.0 μM of the test compound was used. Sensograms were fit globally with BIAcore T200 analysis using 1:1 Langmuir binding mode.

HeLa (ovarian cancer) = assay: MTT antiproliferative assay, HeLa; format: cell-based; details: Homo sapiens, 48 or 72 h, read-out: inhibition of cell growth, HELA
In short: (§1)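 Growth inhibition is graded in bands of percent inhibition at 10 μM, taken from MTT read-out at 490 nm and normalised to vehicle-treated wells. Exposure runs 48 or 72 h at 37° C.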

[1] = tested on: MDA-MB-231 (breast cancer); assay: MTT antiproliferative assay, MDA-MB-231; format: cell-based; details: Homo sapiens, MDA-MB-231, 10 μM, 48 or 72 h, read-out: inhibition of cell growth, MDA-MB-231
In short: as §1

[2] = tested on: A549 (lung adenocarcinoma); assay: MTT antiproliferative assay, A549; format: cell-based; details: Homo sapiens, A549, 10 μM, 48 or 72 h, read-out: inhibition of cell growth, A549
In short: as §1

HepG2 (liver cancer) = assay: MTT antiproliferative assay, HepG2; format: cell-based; details: Homo sapiens, HepG2, 10 μM, 48 or 72 h, read-out: inhibition of cell growth, HepG2
In short: as §1

[3] = tested on: A431 (epidermoid carcinoma); assay: MTT antiproliferative assay, A431; format: cell-based; details: Homo sapiens, A-431, A431, 10 μM, 48 or 72 h, read-out: inhibition of cell growth, A431
In short: as §1

[4] = tested on: A375 (malignant melanoma); assay: MTT antiproliferative assay, A375; format: cell-based; details: Homo sapiens, A-375, A375, 10 μM, 48 or 72 h, read-out: inhibition of cell growth, A375
In short: as §1

SW620 (colon cancer) = assay: MTT antiproliferative assay, SW620; format: cell-based; details: Homo sapiens, SW-620, SW620, 10 μM, 48 or 72 h, read-out: inhibition of cell growth, SW620
In short: as §1

Chain of Nur77-LBD (P22736 360-595 limits assumed, species assumed): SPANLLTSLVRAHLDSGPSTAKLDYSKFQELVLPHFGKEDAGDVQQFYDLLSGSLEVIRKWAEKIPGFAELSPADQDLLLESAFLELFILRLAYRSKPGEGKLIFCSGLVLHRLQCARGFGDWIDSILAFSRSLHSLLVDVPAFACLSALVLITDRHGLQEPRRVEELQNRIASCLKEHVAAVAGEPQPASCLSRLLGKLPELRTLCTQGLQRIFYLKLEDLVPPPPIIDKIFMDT

Work on `CO[C@]1(C)C(=O)C(=O)C=C2C1=CC=C1[C@@]2(C)CC[C@@]2(C)[C@@H]3C[C@](C)(C(=O)O)CC[C@]3(C)CC[C@]12C` [Compound A1, (2R,4aS,6aS,9S,12bR,14aS,14bR)-9-methoxy-2,4a,6a,9,12b,14a-hexamethyl-10,11-dioxo-1,2,3,4,4a,5,6,6a,9,10,11,12b,13,14,14a,14b-hexadecahydropicene-2-carboxylic acid] yielded a Kd (Nur77-LBD) of 390 nM, an inhibition at 10 µM (HeLa (ovarian cancer)) of no less than 80% and an inhibition at 10 µM [1] of 50 to 80%. The inhibition at 10 µM [2] was 30 to 50%, the inhibition at 10 µM (HepG2 (liver cancer)) was 50 to 80% and the inhibition at 10 µM [3] was 50 to 80%. It also gave an inhibition at 10 µM [4] of 30 to 50% and an inhibition at 10 µM (SW620 (colon cancer)) of 50 to 80%.

Work on `CNC(=O)[C@]1(C)CC[C@]2(C)CC[C@]3(C)C4=CC=C5C(=CC(=O)C(=O)[C@@]5(C)OC)[C@]4(C)CC[C@@]3(C)[C@@H]2C1` [Compound A7, (2R,4aS,6aS,9S,12bR,14aS,14bR)-9-methoxy-N,2,4a,6a,9,12b,14a-heptamethyl-10,11-dioxo-1,2,3,4,4a,5,6,6a,9,10,11,12b,13,14,14a,14b-hexadecahydropicene-2-carboxamide] yielded a Kd (Nur77-LBD) of 560 nM, an inhibition at 10 µM (HeLa (ovarian cancer)) of no less than 80% and an inhibition at 10 µM [1] of no less than 80%. The inhibition at 10 µM [2] was 30 to 50%, the inhibition at 10 µM (HepG2 (liver cancer)) was 50 to 80% and the inhibition at 10 µM [3] was 50 to 80%. For the same compound, the inhibition at 10 µM [4] was 50 to 80% and the inhibition at 10 µM (SW620 (colon cancer)) was 30 to 50%.

`CO[C@]1(C)C(=O)C(=O)C=C2C1=CC=C1[C@@]2(C)CC[C@@]2(C)[C@@H]3C[C@](C)(C(N)=O)CC[C@]3(C)CC[C@]12C` [Compound A9, (2R,4aS,6aS,9S,12bR,14aS,14bR)-9-methoxy-2,4a,6a,9,12b,14a-hexamethyl-10,11-dioxo-1,2,3,4,4a,5,6,6a,9,10,11,12b,13,14,14a,14b-hexadecahydropicene-2-carboxamide] showed a Kd (Nur77-LBD) of 890 nM, an inhibition at 10 µM (HeLa (ovarian cancer)) of no less than 80% and an inhibition at 10 µM [1] of no less than 80%. It also gave an inhibition at 10 µM [2] of 30 to 50%, an inhibition at 10 µM (HepG2 (liver cancer)) of 50 to 80% and an inhibition at 10 µM [3] of 50 to 80%. It also gave an inhibition at 10 µM [4] of 30 to 50% and an inhibition at 10 µM (SW620 (colon cancer)) of 50 to 80%.

With `CO[C@@]1(C)C2=CC=C3[C@@](C)(CC[C@@]4(C)[C@@H]5C[C@](C)(C(=O)O)CC[C@]5(C)CC[C@]34C)C2=CC(=NO)[C@@H]1O` [Compound A50, (2R,4aS,6aS,9S,10S,12bR,14aS,14bR)-10-hydroxy-11-(hydroxyimino)-9-methoxy-2,4a,6a,9,12b,14a-hexamethyl-1,2,3,4,4a,5,6,6a,9,10,11,12b,13,14,14a,14b-hexadecahydropicene-2-carboxylic acid] the inhibition at 10 µM (HeLa (ovarian cancer)) was less than 30%, the inhibition at 10 µM [1] was less than 30% and the inhibition at 10 µM [2] was less than 30%. For the same compound, the inhibition at 10 µM (HepG2 (liver cancer)) was less than 30%, the inhibition at 10 µM [3] was less than 30% and the inhibition at 10 µM [4] was less than 30%. It also gave an inhibition at 10 µM (SW620 (colon cancer)) of less than 30%.

For `CO[C@@]1(C)C2=CC=C3[C@@](C)(CC[C@@]4(C)[C@@H]5C[C@](C)(C(=O)O)CC[C@]5(C)CC[C@]34C)C2=CC(=O)C1=NNC(C)=O` [Compound A51, (2R,4aS,6aS,9S,12bR,14aS,14bR)-10-(acetamidoimino)-9-methoxy-2,4a,6a,9,12b,14a-hexamethyl-11-oxo-1,2,3,4,4a,5,6,6a,9,10,11,12b,13,14,14a,14b-hexadecahydropicene-2-carboxylic acid], the inhibition at 10 µM (HeLa (ovarian cancer)) was less than 30%, the inhibition at 10 µM [1] was less than 30% and the inhibition at 10 µM [2] was less than 30%. The inhibition at 10 µM (HepG2 (liver cancer)) was less than 30%, the inhibition at 10 µM [3] was less than 30% and the inhibition at 10 µM [4] was less than 30%. It also gave an inhibition at 10 µM (SW620 (colon cancer)) of less than 30%.

In the case of `CO[C@@]1(C)C2=CC=C3[C@@](C)(CC[C@@]4(C)[C@@H]5C[C@](C)(C(=O)O)CC[C@]5(C)CC[C@]34C)C2=CC(=O)C1=NNC(=O)c1ccncc1` [Compound A52, (2R,4aS,6aS,9S,12bR,14aS,14bR)-9-Methoxy-2,4a,6a,9,12b,14a-hexamethyl-11-oxo-10-{[(pyridin-4-yl)formamido]imino}-1,2,3,4,4a,5,6,6a,9,10,11,12b,13,14,14a,14b-hexadecahydropicene-2-carboxylic acid], the inhibition at 10 µM (HeLa (ovarian cancer)) is reported as less than 30%, the inhibition at 10 µM [1] is reported as less than 30% and the inhibition at 10 µM [2] is reported as less than 30%. For the same compound, the inhibition at 10 µM (HepG2 (liver cancer)) was less than 30%, the inhibition at 10 µM [3] was less than 30% and the inhibition at 10 µM [4] was less than 30%. For the same compound, the inhibition at 10 µM (SW620 (colon cancer)) was less than 30%.

`CO[C@]1(C)C(=O)C2(C=C3C1=CC=C1[C@@]3(C)CC[C@@]3(C)[C@@H]4C[C@](C)(C(=O)O)CC[C@]4(C)CC[C@]13C)OCCO2` [Compound A54, (4S,6bS,8aS,11R,12aR,12bS,14aR)-4-methoxy-4,6b,8a,11,12b,14a-hexamethyl-3-oxo-4,6b,7,8,8a,9,10,11,12,12a,12b,13,14,14a-tetradecahydro-3H-spiro[picene-2,2′-[1,3]dioxolane]-11-carboxylic acid] gave an inhibition at 10 µM (HeLa (ovarian cancer)) of less than 30%, an inhibition at 10 µM [1] of less than 30% and an inhibition at 10 µM [2] of less than 30%. It also gave an inhibition at 10 µM (HepG2 (liver cancer)) of less than 30%, an inhibition at 10 µM [3] of less than 30% and an inhibition at 10 µM [4] of less than 30%. The inhibition at 10 µM (SW620 (colon cancer)) was less than 30%.

In the case of `CO[C@@]1(C)C2=CC=C3[C@@](C)(CC[C@@]4(C)[C@@H]5C[C@](C)(C(N)=O)CC[C@]5(C)CC[C@]34C)C2=CC(=O)[C@@H]1O` [Compound A55, (2R,4aS,6aS,9S,10R,12bR,14aS,14bR)-10-Hydroxy-9-methoxy-2,4a,6a,9,12b,14a-hexamethyl-11-oxo-1,2,3,4,4a,5,6,6a,9,10,11,12b,13,14,14a,14b-hexadecahydropicene-2-carboxamide], the inhibition at 10 µM (HeLa (ovarian cancer)) is reported as 50 to 80%, the inhibition at 10 µM [1] is reported as 50 to 80% and the inhibition at 10 µM [2] is reported as 50 to 80%. The inhibition at 10 µM (HepG2 (liver cancer)) was no less than 80%, the inhibition at 10 µM [3] was no less than 80% and the inhibition at 10 µM [4] was 30 to 50%. The inhibition at 10 µM (SW620 (colon cancer)) was no less than 80%.

Compound `CO[C@@]1(C)C2=CC=C3[C@@](C)(CC[C@@]4(C)[C@@H]5C[C@](C)(C(=O)N6CCOCC6)CC[C@]5(C)CC[C@]34C)C2=CC(=O)[C@@H]1O` [Compound A56, (3R,4S,6bS,8aS,11R,12aR,12bS,14aR)-3-hydroxy-4-methoxy-4,6b,8a,11,12b,14a-hexamethyl-11-(morpholine-4-carbonyl)-4,6b,7,8,8a,9,10,11,12,12a,12b,13,14,14a-tetradecahydropicen-2(3H)-one] has an inhibition at 10 µM (HeLa (ovarian cancer)) of 50 to 80%, an inhibition at 10 µM [1] of 50 to 80% and an inhibition at 10 µM [2] of no less than 80%. It also gave an inhibition at 10 µM (HepG2 (liver cancer)) of no less than 80%, an inhibition at 10 µM [3] of no less than 80% and an inhibition at 10 µM [4] of 30 to 50%. The inhibition at 10 µM (SW620 (colon cancer)) was no less than 80%.

`CO[C@@]1(C)C2=CC=C3[C@@](C)(CC[C@@]4(C)[C@@H]5C[C@](C)(C(=O)NO)CC[C@]5(C)CC[C@]34C)C2=CC(=O)[C@@H]1O` [Compound A57, (2R,4aS,6aS,9S,10R,12bR,14aS,14bR)—N,10-dihydroxy-9-methoxy-2,4a,6a,9,12b,14a-hexamethyl-11-oxo-1,2,3,4,4a,5,6,6a,9,10,11,12b,13,14,14a,14b-hexadecahydropicene-2-carboxamide] was tested, and the inhibition at 10 µM (HeLa (ovarian cancer)) was 50 to 80%, the inhibition at 10 µM [1] was 50 to 80% and the inhibition at 10 µM [2] was no less than 80%. It also gave an inhibition at 10 µM (HepG2 (liver cancer)) of no less than 80%, an inhibition at 10 µM [3] of no less than 80% and an inhibition at 10 µM [4] of 30 to 50%. It also gave an inhibition at 10 µM (SW620 (colon cancer)) of no less than 80%.

`CO[C@@]1(C)C2=CC=C3[C@@](C)(CC[C@@]4(C)[C@@H]5C[C@](C)(C(N)=O)CC[C@]5(C)CC[C@]34C)C2=CC(=O)/C1=C\C#N` [Compound A59, (2R,4aS,6aS,9S,10Z,12bR,14aS,14bR)-10-(cyanomethylidene)-9-methoxy-2,4a,6a,9,12b,14a-hexamethyl-11-oxo-1,2,3,4,4a,5,6,6a,9,10,11,12b,13,14,14a,14b-hexadecahydropicene-2-carboxamide] was tested, and the inhibition at 10 µM (HeLa (ovarian cancer)) was no less than 80%, the inhibition at 10 µM [1] was no less than 80% and the inhibition at 10 µM [2] was no less than 80%. The inhibition at 10 µM (HepG2 (liver cancer)) was no less than 80%, the inhibition at 10 µM [3] was no less than 80% and the inhibition at 10 µM [4] was no less than 80%. It also gave an inhibition at 10 µM (SW620 (colon cancer)) of no less than 80%.

Work on `CO[C@@]1(C)C2=CC=C3[C@@](C)(CC[C@@]4(C)[C@@H]5C[C@](C)(C#N)CC[C@]5(C)CC[C@]34C)C2=CC(=O)[C@@H]1O` [Compound A62, (2R,4aS,6aS,9S,10R,12bR,14aS,14bR)-10-hydroxy-9-methoxy-2,4a,6a,9,12b,14a-hexamethyl-11-oxo-1,2,3,4,4a,5,6,6a,9,10,11,12b,13,14,14a,14b-hexadecahydropicene-2-carbonitrile] yielded an inhibition at 10 µM (HeLa (ovarian cancer)) of less than 30%, an inhibition at 10 µM [1] of 30 to 50% and an inhibition at 10 µM [2] of 30 to 50%. The inhibition at 10 µM (HepG2 (liver cancer)) was 30 to 50%, the inhibition at 10 µM [3] was no less than 80% and the inhibition at 10 µM [4] was 30 to 50%. It also gave an inhibition at 10 µM (SW620 (colon cancer)) of no less than 80%.
